Assay results published in PubChem BioAssay AID1259334 (Broad Institute, 2017).
Active and inactive are the calls of the source. Cut-off read from the data, not from the text of the source: active = AC50 below about 11 µM.

tested on: not listed separately; test: TNFa pathway inhibition counter-screen, B-lineage cells – dose response (AID 1259334); conditions: B cell line, TNFa signaling counterscreen reporter; at 0.0046 µM; active compounds read low;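 note: cells stimulated with TNFa after compound preincubation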

SMILES	max activity
COc1cccc(S(=O)(=O)N(C)C[C@H]2OCc3ccccc3-c3c(n(C)c4ccccc34)C(=O)N([C@@H](C)CO)C[C@H]2C)c1	10.1% (inactive)
NS(=O)(=O)c1cc2c(cc1C(F)(F)F)NC(Cc1ccccc1)NS2(=O)=O (configuration not stated)	6.69% (inactive)

same assay, conditions: B cell line, TNFa signaling counterscreen reporter; at 0.0135 µM; active compounds read low

SMILES	max activity
COc1ccc2c3c(n(C)c2c1)[C@H](CO)N(C(=O)Nc1ccc(F)cc1)CC31CCN(C(=O)Nc2ccc(F)cc2F)CC1	-5.85% (inactive)
CC(=O)Nc1nc2nc(-c3ccccc3)cc(-c3ccccc3)n2n1	11.6% (inactive)
N#C[C@H]1[C@H](c2ccc(C#CC3CCCCC3)cc2)[C@H](CO)N1C(=O)Nc1ccc(F)cc1	9.39% (inactive)
COc1cccc(S(=O)(=O)N(C)C[C@@H]2OCc3ccccc3-c3c(n(C)c4ccccc34)C(=O)N([C@H](C)CO)C[C@H]2C)c1	14.6% (inactive)
O=C1C=CC(=O)C2=C1C1c3ccccc3C2c2ccccc21	13% (inactive)
C[C@@H]1CN([C@@H](C)CO)C(=O)Cc2cc(NS(=O)(=O)c3ccccc3)ccc2O[C@H]1CN(C)Cc1ccc(Cl)c(Cl)c1	16% (inactive)
Cc1ccccc1-c1ccc(C2[C@@H]3CN(C(=O)Nc4cccc(F)c4)C[C@H]2N3)cc1 (some centres not stated)	-14.6% (inactive)
COc1cccc(OC)c1OCCNCC1COc2ccccc2O1 (configuration not stated)	14.5% (inactive)
C[C@@H]1CN([C@@H](C)CO)C(=O)c2c(c3ccccc3n2C)-c2ccccc2CO[C@H]1CN(C)Cc1cccc(C(=O)Nc2ccccc2N)c1	9.96% (inactive)
O=C(c1ccncc1)N1C[C@@H]2N[C@H](C1)C2c1ccc(/C=C/c2ccccc2)cc1 (some centres not stated)	8.12% (inactive)

same assay, conditions: B cell line, TNFa signaling counterscreen reporter; at 0.042 µM; active compounds read low

SMILES	max activity
CC1=NNC(=O)C1Br (configuration not stated)	52.7% (inactive)
O=S(=O)(c1cccc2cnccc12)N1CCNCC1	-11.3% (inactive)
N#C[C@@H]1[C@@H](c2ccc(C#CC3CCCCC3)cc2)[C@H](CO)N1C(=O)Nc1ccc(F)cc1	13.4% (inactive)
CC(=O)Nc1ccc(S(=O)(=O)c2ccc(N)cc2)cc1	6.36% (inactive)

same assay, conditions: B cell line, TNFa signaling counterscreen reporter; at 0.11 µM; active compounds read low

SMILES	max activity
C[C@@H]1CN([C@H](C)CO)C(=O)c2c(c3ccccc3n2C)-c2ccccc2CO[C@@H]1CN(C)S(=O)(=O)c1ccccc1C#N	17.1% (inactive)

same assay, conditions: B cell line, TNFa signaling counterscreen reporter; at 0.12 µM; active compounds read low

SMILES	max activity
O=c1cc(-c2ccccc2)oc2cc(O)cc(O)c12	45.8% (inactive)
Cc1ccc(C2(C)NC(=O)N(CC(=O)Nc3cccnc3Cl)C2=O)cc1 (configuration not stated)	-17.9% (inactive)
C[C@@H]1CCCCO[C@@H](CN(C)CC2CCCCC2)[C@@H](C)CN([C@@H](C)CO)C(=O)c2cc(NC(=O)Nc3ccc(C(F)(F)F)cc3)ccc2O1	11.4% (inactive)
C[C@]12CC[C@H](O)C[C@H]1CC[C@@H]1[C@@H]2CC[C@]2(C)[C@@H](c3ccc(=O)oc3)CC[C@]12O	7.82% (inactive)
Cc1cc(C)c2c(c1)SC1=NC(c3ccccc3)(C(F)(F)F)NC(=O)N12 (configuration not stated)	-5.9% (inactive)
COc1cccc(NC(=O)N2CC(=O)N3[C@H](CO)[C@@H](c4ccc(C#CCC5CCCC5)cc4)[C@H]3C2)c1	16.8% (inactive)

same assay, conditions: B cell line, TNFa signaling counterscreen reporter; at 0.38 µM; active compounds read low

SMILES	max activity
CC(C)(C)c1cc(/C=C(\C#N)C(N)=S)cc(C(C)(C)C)c1O	-4.66% (inactive)
CC(=O)c1cc(-c2ccccc2)n(CC(=O)NCc2cccs2)c1C	12.3% (inactive)
c1ccc(CCSc2nccn2-c2ccccc2)cc1	38% (inactive)
C[C@H]1CN([C@@H](C)CO)C(=O)c2ccccc2-c2ccccc2CO[C@H]1CN(C)C(=O)[C@@H](Cc1ccccc1)N(C)C	-6.07% (inactive)

same assay, conditions: B cell line, TNFa signaling counterscreen reporter; at 1.1 µM; active compounds read low

SMILES	max activity
CCCNC(=O)N1[C@H](CO)[C@H](c2ccc(-c3cccc(OC)c3)cc2)[C@@H]1C#N	18% (inactive)
Cc1noc(C)c1NC(=O)N(C)C[C@@H]1OCCCC[C@@H](C)Oc2ccc(NC(=O)Nc3ccc(C(F)(F)F)cc3)cc2C(=O)N([C@H](C)CO)C[C@H]1C	17% (inactive)
CC1=CC(=O)c2ccccc2C1=O	21.6% (inactive)
COc1ccccc1C(=O)Nc1ccc2c(c1)C(=O)N(C)[C@H]1CC[C@H](CC(=O)Nc3cccc(C(C)C)c3)O[C@@H]1CO2	37.4% (inactive)
CC(C)(C)n1cc(C(=O)c2ccc3ccccc3c2O)cn1	-24.4% (inactive)
COc1ccc(NC(=O)O/N=C/c2c(C)nn(C(C)(C)C)c2C)cc1	39.8% (inactive)
N=C(N)c1ccc(OCCCCCOc2ccc(C(=N)N)cc2)cc1	17.9% (inactive)
N#C[C@@H]1[C@@H](c2ccccc2-c2ccccc2)[C@@H](CO)N1C(=O)NC1CCCC1	20.9% (inactive)
N#C[C@H]1[C@@H](c2ccc(C#CC3CCCCC3)cc2)[C@@H](CO)N1C(=O)Nc1ccc(F)cc1	10.8% (inactive)
COc1ccc2c3c([nH]c2c1)[C@H](CO)N(C(=O)Nc1cccc(F)c1)CC31CCN(S(=O)(=O)c2cccc(C)c2)CC1	21.6% (inactive)
COc1cccc(S(=O)(=O)N(C)C[C@@H]2OCc3ccccc3-c3c(n(C)c4ccccc34)C(=O)N([C@H](C)CO)C[C@@H]2C)c1	16.8% (inactive)
CCCCC1C(=O)NC(=S)N(C)C1=O (configuration not stated)	-7.17% (inactive)

same assay, conditions: B cell line, TNFa signaling counterscreen reporter; at 1.2 µM; active compounds read low

SMILES	max activity
N#C[C@@H]1[C@@H](c2ccccc2-c2ccc(F)cc2)[C@H](CO)N1C(=O)NC1CCCCC1	18.3% (inactive)

same assay, conditions: B cell line, TNFa signaling counterscreen reporter; at 3.5 µM; active compounds read low

SMILES	max activity
CCCC(C)Sc1nc2c([nH]1)c(=S)n(C)c(=O)n2C (configuration not stated)	58.9% (inactive)
Cc1noc(C)c1S(=O)(=O)Nc1ccc2c(c1)C(=O)N([C@@H](C)CO)C[C@H](C)[C@@H](CN(C)C(=O)Nc1cccc3ccccc13)OCCCC[C@H](C)O2	-10.7% (inactive)
O=C(CNCCO)N1N=C(c2cccs2)CC1c1cccs1 (configuration not stated)	-16% (inactive)
COCCn1c(C)cc(C(=O)COC(=O)c2ccc(Br)o2)c1C	-9.22% (inactive)
CC(C)OC(=O)CC1C(=O)NCCN1C(=S)NC(=O)c1cccs1 (configuration not stated)	7.79% (inactive)
Cc1ccc(-c2cc(C(=O)N3CCCC(C(F)(F)F)C3)c3ccccc3n2)o1 (configuration not stated)	21.4% (inactive)
Cc1ccc(C(CC(=O)NCc2ccco2)c2ccc(OC(C)C)cc2)cc1 (configuration not stated)	36% (inactive)
O=C(C[C@@H]1CC[C@H]2[C@@H](COC[C@@H](O)CN2Cc2cc(F)ccc2F)O1)NCc1ccc(Oc2ccccc2)cc1	-19.8% (inactive)
N#Cc1ccc(-c2ccc3c(c2)[C@H]2[C@H](CCN2C(=O)C2CC2)[C@@H](CO)N3)cc1	-16.6% (inactive)
N#C[C@@H]1[C@H](c2ccc(C#CC3CCCC3)cc2)[C@H](CO)N1C(=O)Cc1ccccn1	-8.57% (inactive)
Cc1ccc(OCCn2cnc3c(N)ncnc32)cc1	-11.4% (inactive)
Cc1ccc(-c2ccccc2[C@H]2[C@@H](C#N)N(c3ncc(-c4ccccc4)s3)[C@@H]2CO)cc1	7.84% (inactive)
O=C(C1CCC1)N1CCc2cc(S(=O)(=O)N3CCCCC3)ccc21	-31.7% (inactive)
C[C@@H]1CN([C@H](C)CO)C(=O)c2cc(NC(=O)Nc3cccc4ccccc34)ccc2O[C@@H](C)CCCCO[C@H]1CN(C)Cc1ccc(C(F)(F)F)cc1	-8.53% (inactive)
Cc1ccc(S(=O)(=O)N2CCCC2CNC(=O)c2ccc3c(c2)OCO3)cc1 (configuration not stated)	-23.3% (inactive)

same assay, conditions: B cell line, TNFa signaling counterscreen reporter; at 10 µM; active compounds read low

SMILES	max activity
O=C(NCCC(c1ccccc1)c1ccco1)c1cccs1 (configuration not stated)	46.8% (inactive)
Cc1ccccc1S(=O)(=O)N1C[C@@H]2N[C@H](C1)C2c1ccc(-c2cccc(C#N)c2)cc1 (some centres not stated)	22.9% (inactive)
CCCNC(=O)N1[C@H](C#N)[C@@H](c2ccc(-c3cccc(OC)c3)cc2)[C@H]1CO	11.7% (inactive)
Cc1noc(C)c1S(=O)(=O)N(C)C[C@H]1OCc2ccccc2-c2c(n(C)c3ccccc23)C(=O)N([C@H](C)CO)C[C@H]1C	-12.3% (inactive)
CCOC(=O)c1cc2c(ccn2C)n1Cc1ccc(C#N)cc1	20.1% (inactive)
N#C[C@@H]1[C@@H](c2ccccc2)[C@H](CO)N1C(=O)CN1CCOCC1	46.9% (inactive)
C=C1C(=O)OC2C=C(CO)CCC=C(CO)CC(OC(=O)C(C)C)C12 (configuration not stated)	28.9% (inactive)
c1cncc(C2=NCCC2)c1	38% (inactive)
CN1C(=O)c2cc(NC(=O)c3cccc(Cl)c3)ccc2OC[C@@H]2O[C@@H](CC(=O)NC3CCCCC3)CC[C@H]21	-5.27% (inactive)
CCc1cc2c(=O)c(-c3ccc4c(c3)OCCO4)coc2c(CN2CCCCC2C)c1O (configuration not stated)	26.6% (inactive)

same assay, conditions: B cell line, TNFa signaling counterscreen reporter; at 11 µM; active compounds read low

SMILES	max activity
C[C@@H]1CN([C@H](C)CO)C(=O)Cc2cc(NC(=O)Cc3cn(C)c4ccccc34)ccc2O[C@H]1CN(C)Cc1ccc(C(F)(F)F)cc1	-10.7% (inactive)

tested on: B cell line, TNFa signaling counterscreen reporter; test: as above; conditions: not given

SMILES	AC50 [µM]
O=C1C=CC(=O)c2c(O)c(N3CCN(CCOCCO)CC3)c(Br)c(O)c21	1.33
CCC(=O)NC(c1ccccc1OC)c1ccc2cccnc2c1O (configuration not stated)	9.46
CC(C)c1c(O)ccc2c1CCC1C(C)(C)CCC[C@]21C (some centres not stated)	5.43
Cc1ccnc(NC(=O)c2ccc(OCC3CCCO3)cc2)c1 (configuration not stated)	5.1
COc1cc(C(=O)CCN2CCC(c3ccccc3)C2)cc(OC)c1OC (configuration not stated)	4.66
COc1ccc(C(=O)CCN2CCc3cc(OC)c(OC)cc3C2)cc1	5.97
Cc1noc(C)c1S(=O)(=O)N(C)C[C@@H]1OCc2ccccc2-c2c(n(C)c3ccccc23)C(=O)N([C@@H](C)CO)C[C@@H]1C	10.2
COc1ccc(/C=C2/CCC(CN3CCOCC3)C2=O)cc1 (configuration not stated)	2.69
C[C@@H]1O[C@@H](O[C@H]2C[C@@H](O)[C@]3(CO)C4C(CC[C@]3(O)C2)[C@@]2(O)CC[C@H](C3=CC(=O)OC3)[C@@]2(C)C[C@H]4O)[C@H](O)[C@H](O)[C@H]1O (some centres not stated)	0.138
C=C1C(=O)OC2C=C(CO)C3OC3C3OC3(C)CC(OC(=O)/C(=C/C)COC(C)=O)C12 (configuration not stated)	1.67
O=C1NC2c3c(I)sc(I)c3C(=O)C2O1 (configuration not stated)	3.87
